# Tests used:
# [1] = molecular target: T1, soluble guanylate cyclase (sGC) (Rattus norvegicus, UniProt P20595); assay: Activating action at the sGC enzyme in vitro (PPi detection, luciferase); type: biochemical; settings: for EC50: read-out: EC50 (concentration at 50% of maximum efficacy), activating action at the sGC enzyme
# T1 construct: made in house; host or cells: baculovirus/Sf9 insect cells
# T1 sequence (P20595 1-619): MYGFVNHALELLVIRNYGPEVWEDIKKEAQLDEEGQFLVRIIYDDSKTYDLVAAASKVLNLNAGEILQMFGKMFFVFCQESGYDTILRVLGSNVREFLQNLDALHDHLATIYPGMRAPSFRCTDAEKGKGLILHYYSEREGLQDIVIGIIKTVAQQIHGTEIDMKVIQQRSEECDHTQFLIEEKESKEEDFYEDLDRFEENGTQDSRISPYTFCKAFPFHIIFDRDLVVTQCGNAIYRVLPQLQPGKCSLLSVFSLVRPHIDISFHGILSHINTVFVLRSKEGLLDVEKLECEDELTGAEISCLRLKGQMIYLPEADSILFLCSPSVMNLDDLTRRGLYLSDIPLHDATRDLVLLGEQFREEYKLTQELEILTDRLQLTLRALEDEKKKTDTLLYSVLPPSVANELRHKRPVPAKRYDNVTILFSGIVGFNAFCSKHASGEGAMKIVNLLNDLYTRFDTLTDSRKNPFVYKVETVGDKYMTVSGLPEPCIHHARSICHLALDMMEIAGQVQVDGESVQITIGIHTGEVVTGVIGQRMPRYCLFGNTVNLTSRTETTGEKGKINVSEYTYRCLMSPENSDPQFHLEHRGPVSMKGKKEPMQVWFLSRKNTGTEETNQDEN
# T1 sequence (P19686 1-690 partner): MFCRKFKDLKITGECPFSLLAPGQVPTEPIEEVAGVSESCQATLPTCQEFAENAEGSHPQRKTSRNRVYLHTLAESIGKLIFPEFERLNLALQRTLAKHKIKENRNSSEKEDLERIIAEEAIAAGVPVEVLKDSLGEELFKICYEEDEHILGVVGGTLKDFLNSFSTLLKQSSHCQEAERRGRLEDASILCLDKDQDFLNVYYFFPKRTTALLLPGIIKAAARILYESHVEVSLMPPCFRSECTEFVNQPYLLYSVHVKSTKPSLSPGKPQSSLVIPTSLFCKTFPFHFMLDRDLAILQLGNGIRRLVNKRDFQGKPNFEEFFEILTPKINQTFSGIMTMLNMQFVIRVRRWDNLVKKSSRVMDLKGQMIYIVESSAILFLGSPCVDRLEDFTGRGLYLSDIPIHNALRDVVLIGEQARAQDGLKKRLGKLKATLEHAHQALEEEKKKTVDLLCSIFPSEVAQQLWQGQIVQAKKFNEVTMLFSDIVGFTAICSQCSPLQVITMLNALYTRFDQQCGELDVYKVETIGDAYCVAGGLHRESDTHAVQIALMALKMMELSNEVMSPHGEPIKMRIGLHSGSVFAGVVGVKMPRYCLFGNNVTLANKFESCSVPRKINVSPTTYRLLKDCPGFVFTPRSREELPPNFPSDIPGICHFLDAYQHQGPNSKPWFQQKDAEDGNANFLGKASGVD
# Procedure: Soluble guanylate cyclase (sGC) converts on stimulation GTP into cGMP and pyrophosphate (PPi). PPi is detected with the aid of the assay described below. The signal produced in the assay increases as the reaction progresses and serves as a measure of the sGC enzyme activity under the given stimulation.
# To carry out the assay, 29 μl of enzyme solution [0-10 nM soluble guanylate cyclase (prepared according to Honicka et al., J. Mol. Med. 77, 14-23 (1999)) in 50 mM TEA, 2 mM MgCl2, 0.1% BSA (fraction V), 0.005% Brij®, pH 7.5] are initially introduced into a microplate, and 1 μl of the substance to be tested (as a serially diluted solution in DMSO) is added. The mixture is incubated at room temperature for 10 min. Then 20 μl of detection mix [1.2 nM Firefly Luciferase (Photinus pyralis luciferase, Promega), 29 μM dehydroluciferin (prepared according to Bitler & McElroy, Arch. Biochem. Biophys. 72, 358 (1957)), 122 μM luciferin (Promega), 153 μM ATP (Sigma) and 0.4 mM DTT (Sigma) in 50 mM TEA, 2 mM MgCl2, 0.1% BSA (fraction V), 0.005% Brij®, pH 7.5] are added. The enzyme reaction is started by adding 20 μl of substrate solution [1.25 mM guanosine 5′-triphosphate (Sigma) in 50 mM TEA, 2 mM MgCl2, 0.1% BSA (fraction V), 0.005% Brij®, pH 7.5] and measured continuously in a luminometer. The extent of the stimulation by the substance to be tested can be determined relative to the signal of the unstimulated reaction.
# The activation of heme-free guanylate cyclase is examined by addition of 25 μM of 1H-1,2,4-oxadiazolo[4,3-a]quinoxalin-1-one (ODQ) to the enzyme solution and subsequent incubation for 30 minutes and compared to the stimulation of the native enzyme.
# [2] = molecular target: T2, recombinant guanylate cyclase reporter cell line (Rattus norvegicus, UniProt P20595); assay: sGC-activating activity in the CHO reporter cell in vitro; type: cell-based
# T2 construct: expressed in transfected cells; host or cells: CHO reporter cell line
# T2 sequence (P20595 1-619): T1 sequence (P20595 1-619)
# T2 sequence (P19686 1-690 partner): T1 sequence (P19686 1-690 partner)
# Procedure: The cellular action of the compounds according to the invention is determined at a recombinant guanylate cyclase reporter cell line, as described in F. Wunder et al., Anal. Biochem. 339, 104-112 (2005).
Structure (SMILES),"MEC (minimum effective concentration), activating action at the sGC enzyme [1] [nM]",EC50 [1] [nM],"MEC (minimum effective concentration), sGC-activating activity in the CHO reporter cell [2] [nM]"
"O=C(Nc1cccc(CC2(C(=O)O)CC2)c1)C(c1ccc(Cn2ccc(C(F)(F)F)cc2=O)cc1)C1CCCC1 (stereo not drawn) [Example 176, 1-(3-{[cyclopentyl(4-{[2-oxo-4-(trifluoromethyl)-pyridin-1(2H)-yl]methyl}phenyl)acetyl]amino}-benzyl)cyclopropanecarboxylic acid]",10,320,30
O=C(Nc1cccc(CC2(C(=O)O)CC2)c1F)C(c1ccc(CN2N=C(c3ccccc3)OCC2=O)cc1)C1CCCC1 (stereo not drawn) [Example 233],3.3,78,0.3
C[C@@H]([C@@H](C(=O)Nc1cccc(CC2(C(=O)O)CC2)c1)c1ccc(CN2Cc3c(F)cccc3C2=O)cc1)C(F)(F)F [Example 220],2,75,0.3
O=C(O)CCc1cc(F)cc(NC(=O)C(c2ccc(CN3N=C(c4ccccc4)OCC3=O)cc2)C2CCCC2)c1 (stereo not drawn) [Example 230],8.1,420,30
O=C(O)CCc1cc(NC(=O)C(c2ccc(CN3N=C(c4ccccc4)OCC3=O)cc2)C2CCCC2)ccc1F (stereo not drawn) [Example 232],93,1100,20
"CC(C(C(=O)Nc1cccc(CCC(=O)O)c1Cl)c1ccc(CN2N=C(c3ccccc3)OCC2=O)cc1)C(F)(F)F (stereo not drawn) [Example 184, 3-{2-chloro-3-[(4,4,4-trifluoro-3-methyl-2-{4-[(5-oxo-2-phenyl-5,6-dihydro-4H-1,3,4-oxadiazin-4-yl)methyl]-phenyl}butanoyl)amino]phenyl}propanoic acid]",7,240,3
O=C(Nc1ccc(F)c(CC2(C(=O)O)CC2)c1)C(c1ccc(CN2N=C(c3ccccc3)OCC2=O)cc1)C1CCCC1 (stereo not drawn) [Example 234],4.1,220,1

# Compounds with a lower EC50 [1], results first:
"MEC (minimum effective concentration), activating action at the sGC enzyme [1] [nM]",EC50 [1] [nM],"MEC (minimum effective concentration), sGC-activating activity in the CHO reporter cell [2] [nM]",Structure (SMILES)
1.4,69,0.7,"CC(C(C(=O)Nc1cccc(CC2(C(=O)O)CC2)c1)c1ccc(Cn2nc(C(F)(F)F)ccc2=O)cc1)C(F)(F)F (single isomer, unassigned) [Example 181, 1-(3-{[4,4,4-trifluoro-3-methyl-2-(4-{[6-oxo-3-(trifluoromethyl)pyridazin-1(6H)-yl]methyl}-phenyl)-butanoyl]amino}benzyl)cyclopropanecarboxylic acid]"
3.7,59,30,"Cc1ccc(=O)n(Cc2ccc(C(C(=O)Nc3cccc(CC4(C(=O)O)CC4)c3)C3CCCC3)cc2)n1 (stereo not drawn) [Example 171, 1-{3-[(cyclopentyl{4-[(3-methyl-6-oxopyridazin-1(6H)-yl)methyl]phenyl}acetyl)amino]benzyl}-cyclopropanecarboxylic acid]"
3.4,35,30,"CC(CC(F)(F)F)C(C(=O)Nc1cccc(CC2(C(=O)O)CC2)c1)c1ccc(CN2N=C(c3ccccc3)OCC2=O)cc1 (single isomer, unassigned) [Example 160, 1-{3-[(5,5,5-trifluoro-3-methyl-2-{4-[(5-oxo-2-phenyl-5,6-dihydro-4H-1,3,4-oxadiazin-4-yl)methyl]phenyl}-pentanoyl)amino]benzyl}cyclopropanecarboxylic acid]"
1.2,17,3,"O=C(Nc1cccc(CC2(C(=O)O)CC2)c1)C(c1ccc(CN2N=C(c3ccccc3)OCC2=O)cc1)C1CCC(F)(F)C1 (single isomer, unassigned) [Example 241, 1-(3-{[(3,3-Difluorocyclopentyl) {4-[(5-oxo-2-phenyl-5,6-dihydro-4H-1,3,4-oxadiazin-4-yl)-methyl]phenyl}acetyl]amino}benzyl)cyclopropanecarboxylic acid]"
1,11,3,"CCC(C(C(=O)Nc1cccc(CC2(C(=O)O)CC2)c1)c1ccc(CN2N=C(c3ccccc3)OCC2=O)cc1)C(F)(F)F (stereo not drawn) [Example 170, 1-(3-{[2-{4-[(5-oxo-2-phenyl-5,6-dihydro-4H-1,3,4-oxadiazin-4-yl)methyl]phenyl}-3-(trifluoromethyl)-pentanoyl]amino}benzyl)cyclopropanecarboxylic acid]"
0.2,3.6,0.2,C[C@H]([C@H](C(=O)Nc1cccc(CC2(C(=O)O)CC2)c1)c1ccc(CN2Cc3c(F)cccc3C2=O)cc1)C(F)(F)F [Example 219]

# Reference: US8987256B2, “Oxo-heterocyclic substituted carboxylic acid derivatives and the use thereof” (Bayer Intellectual Property GmbH, priority 2008, dated 2015)
